Source: publication PMC12323867 (RSC Medicinal Chemistry, 2025)
“And” between values parts separate entries of the source, which are not always exact repeats. Equal entries are not always repeated. Where two headings read alike, the source gives them in different places.

Biological target: T1, LSD1-HDAC1-CoREST complex (Homo sapiens, UniProt O60341)
T1 construct: full length native LSD1 (UniProt ID: O60341); made in house; host or cells: HEK 293F cells (co-transfection, pcDNA3 vectors)
Test: LSD1 HRP-coupled demethylase assay, SP2509/SP2577 analogues
Type: biochemical
Description: The analogues synthesised were then tested for their ability to inhibit LSD1 using purified LSD1-HDAC1-CoREST complex (Fig. 2B). We used an established fluorescent read out horseradish peroxidase (HRP) assay to monitor LSD1 enzymatic activity in the CoREST complex[8] (see ESI ^† for full details).
2. Supplementary Information: Biology
2.1. LSD-HDAC1-CoREST expression and purification
Lysis Buffer (Buffer A) Wash Buffer (Buffer B)
• 50 mM Tris/Cl pH 7.5 • 50 mM Tris/Cl pH 7.5
• 50 mM Potassium Acetate • 50 mM Potassium Acetate […]
Cleavage Buffer (Buffer C) Gel Filtration Buffer (Buffer D)
• 50 mM Tris/Cl pH 7.5 Filtered at vacuum.
• 50 mM Potassium Acetate • 50 mM Tris/Cl pH 7.5
• 5 % v/v Glycerol • 50 mM Potassium Acetate
• 0.5 mM tris(2- • 0.5 mM TCEP carboxyethyl)phosphine (TCEP)
The CoREST ternary complex was comprised of full length native LSD1 (UniProt ID: O60341), full length HDAC1 (UniProt ID: Q13547) and N-terminally truncated RCOR1 (86-485aa) (UniProt ID:
Q9UKL0). Protein constructs were cloned into pcDNA3 vector. The RCOR1 constructs contained an N-terminal (His)10(Flag)3 tag followed by a Tev protease cleavage site. The constructs for ternary complex were co-transfected into suspension-grow HEK 293F cells (Thermofisher Scientific) with polyethylenimine (PEI) (Sigma) and harvested after 48 hours. This section of the procedure was carried out as described previously in literature.11,12
Cell pellets from 1.2 L culture were defrosted, and buffer A (30 mL) was added. The solution was sonicated (Soniprep 150) in an beaker of ice using a 9 mm probe at 10 ampules; operated with 10 […]
2.2. SP2509/SP2577 analogues LSD1 HRP-coupled demethylase assay protocol The commercial reagents for the assay were HRP and Amplex® Ultrared, which are available to purchase from ThermoFisher (31490) and Invitrogen (10737474), respectively. HRP was made up to 8 mg/mL stock solution in 1xPBS buffer, divided into 10 µL aliquots, snap-frozen in liquid nitrogen and stored at -80 °C. Amplex® Ultrared was made up to 10 mM solution in DMSO, divided into 20 µL aliquots and wrapped in foil, away from light and stored at -20 °C. For each assay experiment, CoREST complex was diluted to 500 nM in assay buffer (20 mM HEPES pH 7.5 and 50 mM NaCl).
HRP was defrosted by diluting each aliquot in 90 µL 1xPBS solution, making a 0.8 mg/mL solution.
Amplex® Ultrared was made up to 200 µM in assay buffer. HRP and Amplex® Ultrared were pre-mixed before addition to the plate. H3K4Me2 substrate (4 mM in deionised water) was diluted to 300 µM in assay buffer. All stocks were stored on ice during assay preparation.
The assay was carried out using a ‘black well’ 96 well plate (Corning no. 3915) in a reaction volume of 100 μL. The final concentrations in the assay were as follows: 50 nM CoREST complex, 10 μM Amplex® UltraRed, 0.04 mg/mL HRP and 15 μM H3K4Me2 peptide substrate. The final DMSO concentration in each well was 1.1 %. Three wells of each experiments were designated ‘background controls’ and contained 85 μL assay buffer, premixed Amplex® UltraRed and HRP (10 µL) and H3K4Me peptide substrate (300 μM, 5 µL).
A stock solution of inhibitor (1 -5 mM in DMSO) was subjected to an inhibitor dilution series, in Eppendorf tubes, in 100 % DMSO. Each new inhibitor stock (4 μL) was diluted in assay buffer (1 in 75) within a new Eppendorf set with assay buffer (20 mM HEPES pH 7.5 and 50 m M NaCl), ensuring the percentage of DMSO was consistent throughout the series. To each well of interest, Inhibitor in assay buffer (75 μL) was added, and CoREST complex (500 nM, 10 µL) was added thereafter. The plate was placed on a rocker and pre -incubated for 30 mins. To each well, premixed Amplex® UltraRed and HRP (10 µL) was added before H3K4Me 2 peptide substrate in assay buffer solution (300 μM, 5 µL) was added to the wall of the plate. The plate was covered in foil and spun down for one minute before being placed in the plate reader. The final percentage concentration of DMSO in […]

C/C(=N\NC(=O)c1cccc(S(=O)(=O)N2CCOCC2)c1)c1cc(Cl)ccc1O [SP2509, reference compound]
IC50 (LSD1 enzymatic activity, complex 50 nM, HRP assay, SP2509 value is mean of three sets, read-out: LSD1-HDAC1-CoREST IC50): 54.2 nM | IC50 (per parallel set, each set with SP2509 as reference standard, read-out: IC50 from dose response curves (Figure S1)): 52 nM and 56 nM and 55 nM
